{"source": "ChEMBL document CHEMBL4052645", "about": "“Discovery of potent and efficacious pyrrolopyridazines as dual JAK1/3 inhibitors” (Bioorg Med Chem Lett, 2017)", "key": {"[1]": {"target": "Hepatocyte growth factor receptor (Homo sapiens) (UniProt P08581)", "experiment": "Inhibition of wild-type human partial length MET (D1010 to S1367 residues) expressed in bacterial expression system assessed as residual activity at 50 nM by Kinomescan method relative to control"}, "[2]": {"target": "Receptor tyrosine-protein kinase erbB-2 (Homo sapiens) (UniProt P04626)", "experiment": "Inhibition of wild-type human partial length ERBB2 (K646 to V1225 residues) expressed in mammalian expression system assessed as residual activity at 50 nM by Kinomescan method relative to control"}, "[3]": {"target": "Interleukin-1 receptor-associated kinase 1 (Homo sapiens) (UniProt P51617)", "experiment": "Inhibition of wild-type human partial length IRAK1 (R194 to S712 residues) expressed in mammalian expression system assessed as residual activity at 50 nM by Kinomescan method relative to control"}, "[4]": {"target": "Dual specificity testis-specific protein kinase 1 (Homo sapiens) (UniProt Q15569)", "sequence (Q15569 whole entry, looked up, the tested form may be a part)": "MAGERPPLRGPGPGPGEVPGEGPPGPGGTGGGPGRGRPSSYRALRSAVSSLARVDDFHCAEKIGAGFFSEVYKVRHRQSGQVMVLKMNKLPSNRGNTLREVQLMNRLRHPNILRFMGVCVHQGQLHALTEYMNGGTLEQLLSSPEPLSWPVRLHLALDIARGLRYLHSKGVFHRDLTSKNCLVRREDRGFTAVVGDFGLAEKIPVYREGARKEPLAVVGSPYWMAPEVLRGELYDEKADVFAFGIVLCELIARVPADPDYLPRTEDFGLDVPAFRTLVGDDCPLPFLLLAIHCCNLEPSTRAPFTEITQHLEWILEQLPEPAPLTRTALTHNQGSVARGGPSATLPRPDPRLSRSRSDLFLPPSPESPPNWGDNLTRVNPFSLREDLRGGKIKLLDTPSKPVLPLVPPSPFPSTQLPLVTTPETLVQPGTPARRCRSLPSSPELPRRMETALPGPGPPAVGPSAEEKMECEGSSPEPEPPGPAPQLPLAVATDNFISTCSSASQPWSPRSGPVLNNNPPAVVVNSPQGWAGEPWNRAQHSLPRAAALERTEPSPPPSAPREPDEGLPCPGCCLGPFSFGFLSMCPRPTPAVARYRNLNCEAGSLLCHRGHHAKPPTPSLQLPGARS", "experiment": "Inhibition of wild-type human full length TESK1 (R37 to S626 residues) expressed in bacterial expression system assessed as residual activity at 50 nM by Kinomescan method relative to control"}, "[5]": {"target": "Serine/threonine-protein kinase Nek6 (Homo sapiens) (UniProt Q9HC98)", "sequence (Q9HC98 whole entry, the tested form may be a part)": "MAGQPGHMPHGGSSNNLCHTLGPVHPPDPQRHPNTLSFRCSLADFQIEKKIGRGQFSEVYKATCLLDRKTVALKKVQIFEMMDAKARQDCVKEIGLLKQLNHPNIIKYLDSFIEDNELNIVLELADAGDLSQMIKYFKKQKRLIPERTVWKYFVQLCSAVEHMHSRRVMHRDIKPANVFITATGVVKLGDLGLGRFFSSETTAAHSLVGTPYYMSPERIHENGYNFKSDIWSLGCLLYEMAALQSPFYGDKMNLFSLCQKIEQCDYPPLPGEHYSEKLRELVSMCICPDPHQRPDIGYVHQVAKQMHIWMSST", "experiment": "Inhibition of wild-type human full length NEK6 (M8 to T313 residues) expressed in bacterial expression system assessed as residual activity at 50 nM by Kinomescan method relative to control"}, "[6]": {"target": "Ribosomal protein S6 kinase alpha-1 (Homo sapiens) (UniProt Q15418)", "sequence (Q15418 whole entry, the tested form may be a part)": "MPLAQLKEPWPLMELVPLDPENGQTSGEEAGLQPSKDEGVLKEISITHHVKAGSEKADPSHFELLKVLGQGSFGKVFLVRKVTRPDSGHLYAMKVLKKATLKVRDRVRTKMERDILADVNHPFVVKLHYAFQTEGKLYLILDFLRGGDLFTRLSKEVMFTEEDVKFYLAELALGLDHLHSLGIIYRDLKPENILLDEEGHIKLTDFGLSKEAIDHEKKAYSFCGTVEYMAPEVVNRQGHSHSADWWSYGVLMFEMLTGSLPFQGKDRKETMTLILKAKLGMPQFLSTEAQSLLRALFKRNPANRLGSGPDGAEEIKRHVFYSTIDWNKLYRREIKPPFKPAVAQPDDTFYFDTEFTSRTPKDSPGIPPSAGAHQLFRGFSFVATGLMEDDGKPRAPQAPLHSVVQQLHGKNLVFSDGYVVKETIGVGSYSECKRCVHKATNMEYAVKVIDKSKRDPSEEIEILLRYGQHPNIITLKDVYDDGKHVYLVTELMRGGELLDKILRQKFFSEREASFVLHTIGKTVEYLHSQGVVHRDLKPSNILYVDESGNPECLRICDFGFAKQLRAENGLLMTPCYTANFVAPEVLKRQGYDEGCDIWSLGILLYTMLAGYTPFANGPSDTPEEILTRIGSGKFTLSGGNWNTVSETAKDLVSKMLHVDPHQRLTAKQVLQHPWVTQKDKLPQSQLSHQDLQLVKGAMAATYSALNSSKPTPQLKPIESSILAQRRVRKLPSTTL", "experiment": "Inhibition of wild-type human partial length C-terminal RSK1 […] (P360 to L681 residues) expressed in bacterial expression system assessed as residual activity at 50 nM by Kinomescan method relative to control"}, "[7]": {"target": "G protein-coupled receptor kinase 4 (Homo sapiens) (UniProt P32298)", "experiment": "Inhibition of wild-type human full length GPRK4 (M1 to C578 residues) expressed in bacterial expression system assessed as residual activity at 50 nM by Kinomescan method relative to control"}, "[8]": {"target": "Mitogen-activated protein kinase kinase kinase kinase 3 (Homo sapiens) (UniProt Q8IVH8)", "experiment": "Inhibition of wild-type human partial length KHS2 (M1 to D301 residues) expressed in bacterial expression system assessed as residual activity at 50 nM by Kinomescan method relative to control"}, "[9]": {"target": "Phosphatidylinositol 3-kinase C2 domain-containing subunit gamma (Homo sapiens) (UniProt O75747)", "experiment": "Inhibition of wild-type human partial length PI3KC2G (M1 to I1446 residues) expressed in mammalian expression system assessed as residual activity at 50 nM by Kinomescan method relative to control"}, "[10]": {"target": "Serine/threonine-protein kinase Nek11 (Homo sapiens) (UniProt Q8NG66)", "sequence (Q8NG66 whole entry, the tested form may be a part)": "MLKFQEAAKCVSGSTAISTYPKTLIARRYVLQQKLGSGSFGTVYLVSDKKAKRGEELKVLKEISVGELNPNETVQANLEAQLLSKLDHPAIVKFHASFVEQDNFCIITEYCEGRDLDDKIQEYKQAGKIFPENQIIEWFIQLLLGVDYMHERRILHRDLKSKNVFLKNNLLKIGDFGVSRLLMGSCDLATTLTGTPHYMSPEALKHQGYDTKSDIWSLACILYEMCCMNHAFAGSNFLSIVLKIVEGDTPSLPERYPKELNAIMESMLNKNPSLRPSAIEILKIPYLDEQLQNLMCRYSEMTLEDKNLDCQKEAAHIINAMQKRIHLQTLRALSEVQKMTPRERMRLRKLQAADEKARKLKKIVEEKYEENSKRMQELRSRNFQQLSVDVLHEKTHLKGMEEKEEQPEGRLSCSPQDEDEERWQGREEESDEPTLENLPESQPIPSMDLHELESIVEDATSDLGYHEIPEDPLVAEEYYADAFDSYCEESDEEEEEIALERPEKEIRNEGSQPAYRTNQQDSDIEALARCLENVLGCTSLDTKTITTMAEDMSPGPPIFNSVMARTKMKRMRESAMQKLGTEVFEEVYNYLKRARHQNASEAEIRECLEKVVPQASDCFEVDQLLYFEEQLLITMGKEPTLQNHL", "experiment": "Inhibition of wild-type human partial length NEK11 (M1 to E313 residues) expressed in mammalian expression system assessed as residual activity at 50 nM by Kinomescan method relative to control"}, "[11]": {"target": "Serine/threonine-protein kinase Nek7 (Homo sapiens) (UniProt Q8TDX7)", "experiment": "Inhibition of wild-type human full length NEK7 (M1 to S302 residues) expressed in bacterial expression system assessed as residual activity at 50 nM by Kinomescan method relative to control"}, "[12]": {"target": "Ephrin type-A receptor 1 (Homo sapiens) (UniProt P21709)", "sequence (P21709 whole entry, the tested form may be a part)": "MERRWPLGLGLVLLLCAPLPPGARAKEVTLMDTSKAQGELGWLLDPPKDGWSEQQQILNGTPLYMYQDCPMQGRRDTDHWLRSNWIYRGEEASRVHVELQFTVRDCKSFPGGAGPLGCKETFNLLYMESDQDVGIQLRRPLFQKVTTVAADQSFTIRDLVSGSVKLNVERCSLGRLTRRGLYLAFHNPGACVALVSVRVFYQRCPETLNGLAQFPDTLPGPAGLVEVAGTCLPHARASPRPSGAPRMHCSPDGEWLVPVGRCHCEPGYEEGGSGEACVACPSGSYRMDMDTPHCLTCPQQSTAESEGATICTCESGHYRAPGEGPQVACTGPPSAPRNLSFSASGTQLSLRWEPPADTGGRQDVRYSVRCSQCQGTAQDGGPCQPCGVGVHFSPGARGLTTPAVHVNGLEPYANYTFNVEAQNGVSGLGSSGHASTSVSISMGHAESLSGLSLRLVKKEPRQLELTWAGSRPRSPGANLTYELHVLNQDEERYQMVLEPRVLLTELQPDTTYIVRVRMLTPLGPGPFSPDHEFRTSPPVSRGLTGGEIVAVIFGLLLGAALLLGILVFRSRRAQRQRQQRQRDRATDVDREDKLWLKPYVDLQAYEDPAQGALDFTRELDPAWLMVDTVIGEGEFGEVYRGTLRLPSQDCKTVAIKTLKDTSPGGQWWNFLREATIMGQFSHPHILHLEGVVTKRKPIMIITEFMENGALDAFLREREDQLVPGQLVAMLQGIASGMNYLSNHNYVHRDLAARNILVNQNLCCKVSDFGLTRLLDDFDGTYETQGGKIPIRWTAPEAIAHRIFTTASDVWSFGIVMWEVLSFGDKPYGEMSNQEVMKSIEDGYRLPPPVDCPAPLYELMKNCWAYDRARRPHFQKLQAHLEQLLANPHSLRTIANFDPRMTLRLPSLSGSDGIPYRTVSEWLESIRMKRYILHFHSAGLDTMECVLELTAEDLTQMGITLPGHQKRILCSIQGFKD", "experiment": "Inhibition of wild-type human partial length EPHA1 (V588 to I913 residues) expressed in bacterial expression system assessed as residual activity at 50 nM by Kinomescan method relative to control"}, "[13]": {"target": "Cyclin-dependent kinase 8 (Homo sapiens) (UniProt P49336)", "experiment": "Inhibition of wild-type human partial length CDK8 (M1 to T360 residues) expressed in bacterial expression system assessed as residual activity at 50 nM by Kinomescan method relative to control"}, "[14]": {"target": "Fibroblast growth factor receptor 3 (Homo sapiens) (UniProt P22607)", "experiment": "Inhibition of wild-type human partial length FGFR3 (R442 to S771 residues) expressed in bacterial expression system assessed as residual activity at 50 nM by Kinomescan method relative to control"}, "[15]": {"target": "Serine/threonine-protein kinase N1 (Homo sapiens) (UniProt Q16512)", "experiment": "Inhibition of human PKN1 (E598 to C948 residues) expressed in bacterial expression system assessed as residual activity at 50 nM by KINOMEscan assay relative to control"}, "[16]": {"target": "Tyrosine-protein kinase TXK (Homo sapiens) (UniProt P42681)", "experiment": "Inhibition of wild-type human partial length TXK (L238 to W527 residues) expressed in bacterial expression system assessed as residual activity at 50 nM by Kinomescan method relative to control"}, "[17]": {"target": "Tyrosine-protein kinase Srms (Homo sapiens) (UniProt Q9H3Y6)", "experiment": "Inhibition of wild-type human partial length SRMS (L208 to P488 residues) expressed in mammalian expression system assessed as residual activity at 50 nM by Kinomescan method relative to control"}, "[18]": {"target": "Tyrosine-protein kinase JAK1 (Homo sapiens, UniProt P23458)", "experiment": "Inhibition of GST-tagged JAK1 (unknown origin) after 3 hrs by Caliper assay"}, "[19]": {"target": "Serine/threonine-protein kinase 3 (Homo sapiens) (UniProt Q13188)", "sequence (Q13188 whole entry, the tested form may be a part)": "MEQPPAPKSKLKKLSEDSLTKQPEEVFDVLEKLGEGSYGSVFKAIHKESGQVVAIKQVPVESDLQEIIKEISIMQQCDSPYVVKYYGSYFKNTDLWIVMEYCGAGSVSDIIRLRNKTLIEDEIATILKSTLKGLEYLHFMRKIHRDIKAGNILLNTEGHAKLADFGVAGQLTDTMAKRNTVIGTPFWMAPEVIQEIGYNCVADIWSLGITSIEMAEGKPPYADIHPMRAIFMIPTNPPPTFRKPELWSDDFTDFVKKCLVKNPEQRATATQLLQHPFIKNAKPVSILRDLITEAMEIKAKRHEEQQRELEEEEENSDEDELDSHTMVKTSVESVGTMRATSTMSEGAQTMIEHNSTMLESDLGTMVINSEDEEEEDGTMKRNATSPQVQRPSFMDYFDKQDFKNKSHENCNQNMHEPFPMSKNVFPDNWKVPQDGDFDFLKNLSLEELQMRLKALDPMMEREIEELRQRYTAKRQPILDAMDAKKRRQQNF", "experiment": "Inhibition of human MST2 (D17 to E318 residues) expressed in bacterial expression system assessed as residual activity at 50 nM by KINOMEscan assay relative to control"}, "[20]": {"target": "MAP kinase-interacting serine/threonine-protein kinase 2 (Homo sapiens) (UniProt Q9HBH9)", "sequence (Q9HBH9 whole entry, looked up, the tested form may be a part)": "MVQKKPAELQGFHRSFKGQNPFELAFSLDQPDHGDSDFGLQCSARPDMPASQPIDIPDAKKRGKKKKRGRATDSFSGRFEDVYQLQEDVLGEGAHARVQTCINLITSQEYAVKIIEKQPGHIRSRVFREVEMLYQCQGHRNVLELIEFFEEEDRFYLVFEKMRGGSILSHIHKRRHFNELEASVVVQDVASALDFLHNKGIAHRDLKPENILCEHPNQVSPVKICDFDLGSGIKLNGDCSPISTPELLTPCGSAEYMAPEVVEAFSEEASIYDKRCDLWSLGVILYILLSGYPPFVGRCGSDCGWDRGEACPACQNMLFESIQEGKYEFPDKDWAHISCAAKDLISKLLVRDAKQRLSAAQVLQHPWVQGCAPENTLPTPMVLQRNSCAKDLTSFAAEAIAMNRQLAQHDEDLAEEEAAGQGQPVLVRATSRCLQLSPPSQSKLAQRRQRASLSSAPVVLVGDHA", "experiment": "Inhibition of wild-type human partial length MNK2 (G63 to S388 residues) expressed in mammalian expression system assessed as residual activity at 50 nM by Kinomescan method relative to control"}, "[21]": {"target": "Activated CDC42 kinase 1 (Homo sapiens) (UniProt Q07912)", "experiment": "Inhibition of wild-type human partial length ACK (S159 to D474 residues) expressed in bacterial expression system assessed as residual activity at 50 nM by Kinomescan method relative to control"}, "[22]": {"target": "Angiopoietin-1 receptor (Homo sapiens) (UniProt Q02763)", "experiment": "Inhibition of wild-type human partial length TIE2 (N804 to T1112 residues) expressed in bacterial expression system assessed as residual activity at 50 nM by Kinomescan method relative to control"}, "[23]": {"target": "Serine/threonine-protein kinase 32C (Homo sapiens) (UniProt Q86UX6)", "experiment": "Inhibition of wild-type human partial length YANK3 (M68 to G486 residues) expressed in bacterial expression system assessed as residual activity at 50 nM by Kinomescan method relative to control"}, "[24]": {"target": "Ribosomal protein S6 kinase alpha-6 (Homo sapiens) (UniProt Q9UK32)", "experiment": "Inhibition of human N-terminal RSK4 kinase domain 1 (M1 to E397 residues) expressed in mammalian expression system assessed as residual activity at 50 nM by KINOMEscan assay relative to control"}, "[25]": {"target": "Protein kinase C epsilon type (Homo sapiens) (UniProt Q02156)", "sequence (Q02156 whole entry, the tested form may be a part)": "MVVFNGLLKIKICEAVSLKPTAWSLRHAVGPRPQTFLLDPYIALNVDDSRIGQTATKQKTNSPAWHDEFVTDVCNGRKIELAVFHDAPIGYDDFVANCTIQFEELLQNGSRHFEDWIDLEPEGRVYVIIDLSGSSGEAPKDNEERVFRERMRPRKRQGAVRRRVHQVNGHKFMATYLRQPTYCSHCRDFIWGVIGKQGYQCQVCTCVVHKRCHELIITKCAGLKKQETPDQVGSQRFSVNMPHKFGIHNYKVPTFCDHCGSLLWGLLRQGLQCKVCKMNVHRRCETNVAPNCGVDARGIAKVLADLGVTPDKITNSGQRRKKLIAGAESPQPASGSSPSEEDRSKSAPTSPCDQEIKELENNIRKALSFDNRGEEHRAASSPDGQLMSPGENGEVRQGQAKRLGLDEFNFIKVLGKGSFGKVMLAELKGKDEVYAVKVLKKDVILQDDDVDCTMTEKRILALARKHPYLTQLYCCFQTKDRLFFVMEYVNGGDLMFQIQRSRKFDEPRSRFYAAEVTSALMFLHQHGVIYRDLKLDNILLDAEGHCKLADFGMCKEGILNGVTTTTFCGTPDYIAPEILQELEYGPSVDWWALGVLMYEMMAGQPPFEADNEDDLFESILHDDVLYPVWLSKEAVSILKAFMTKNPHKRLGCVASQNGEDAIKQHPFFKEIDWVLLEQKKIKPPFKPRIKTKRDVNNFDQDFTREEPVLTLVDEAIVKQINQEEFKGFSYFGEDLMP", "experiment": "Inhibition of wild-type human partial length PKCE (A378 to P737 residues) expressed in mammalian expression system assessed as residual activity at 50 nM by Kinomescan method relative to control"}}, "data": [{"compound": "CC1(C)[C@H](Nc2c(C(N)=O)cnn3cc(-c4ccccc4)cc23)CC[C@]1(C)N", "values": [{"measurement": "Activity", "setting": "[1]", "result": 88, "unit": "%"}, {"measurement": "Activity", "setting": "[2]", "result": 76, "unit": "%"}, {"measurement": "Activity", "setting": "[3]", "result": 94, "unit": "%"}, {"measurement": "Activity", "setting": "[4]", "result": 100, "unit": "%"}, {"measurement": "Activity", "setting": "[5]", "result": 88, "unit": "%"}, {"measurement": "Activity", "setting": "[6]", "result": 81, "unit": "%"}, {"measurement": "Activity", "setting": "[7]", "result": 64, "unit": "%"}, {"measurement": "Activity", "setting": "[8]", "result": 18, "unit": "%"}, {"measurement": "Activity", "setting": "[9]", "result": 100, "unit": "%"}, {"measurement": "Activity", "setting": "[10]", "result": 87, "unit": "%"}, {"measurement": "Activity", "setting": "[11]", "result": 100, "unit": "%"}, {"measurement": "Activity", "setting": "[12]", "result": 80, "unit": "%"}, {"measurement": "Activity", "setting": "[13]", "result": 100, "unit": "%"}, {"measurement": "Activity", "setting": "[14]", "result": 100, "unit": "%"}, {"measurement": "Activity", "setting": "[15]", "result": 0.3, "unit": "%"}, {"measurement": "Activity", "setting": "[16]", "result": 100, "unit": "%"}, {"measurement": "Activity", "setting": "[17]", "result": 64, "unit": "%"}, {"measurement": "IC50", "setting": "[18]", "result": 0.4, "unit": "nM"}, {"measurement": "Activity", "setting": "[19]", "result": 6.2, "unit": "%"}, {"measurement": "Activity", "setting": "[20]", "result": 100, "unit": "%"}, {"measurement": "Activity", "setting": "[21]", "result": 73, "unit": "%"}, {"measurement": "Activity", "setting": "[22]", "result": 87, "unit": "%"}, {"measurement": "Activity", "setting": "[23]", "result": 100, "unit": "%"}, {"measurement": "Activity", "setting": "[24]", "result": 14, "unit": "%"}, {"measurement": "Activity", "setting": "[25]", "result": 58, "unit": "%"}]}, {"compound": "COc1ccc(-c2cc3c(N[C@@H]4CC[C@](C)(N)C4(C)C)c(C(N)=O)cnn3c2)cn1", "values": [{"measurement": "Activity", "setting": "[1]", "result": 87, "unit": "%"}, {"measurement": "Activity", "setting": "[2]", "result": 99, "unit": "%"}, {"measurement": "Activity", "setting": "[3]", "result": 100, "unit": "%"}, {"measurement": "Activity", "setting": "[4]", "result": 84, "unit": "%"}, {"measurement": "Activity", "setting": "[5]", "result": 97, "unit": "%"}, {"measurement": "Activity", "setting": "[6]", "result": 100, "unit": "%"}, {"measurement": "Activity", "setting": "[7]", "result": 100, "unit": "%"}, {"measurement": "Activity", "setting": "[8]", "result": 49, "unit": "%"}, {"measurement": "Activity", "setting": "[9]", "result": 100, "unit": "%"}, {"measurement": "Activity", "setting": "[10]", "result": 99, "unit": "%"}, {"measurement": "Activity", "setting": "[11]", "result": 100, "unit": "%"}, {"measurement": "Activity", "setting": "[12]", "result": 93, "unit": "%"}, {"measurement": "Activity", "setting": "[13]", "result": 86, "unit": "%"}, {"measurement": "Activity", "setting": "[14]", "result": 82, "unit": "%"}, {"measurement": "Activity", "setting": "[15]", "result": 7, "unit": "%"}, {"measurement": "Activity", "setting": "[16]", "result": 100, "unit": "%"}, {"measurement": "Activity", "setting": "[17]", "result": 94, "unit": "%"}, {"measurement": "IC50", "setting": "[18]", "result": 1.9, "unit": "nM"}, {"measurement": "Activity", "setting": "[19]", "result": 6, "unit": "%"}, {"measurement": "Activity", "setting": "[20]", "result": 95, "unit": "%"}, {"measurement": "Activity", "setting": "[21]", "result": 100, "unit": "%"}, {"measurement": "Activity", "setting": "[22]", "result": 100, "unit": "%"}, {"measurement": "Activity", "setting": "[23]", "result": 100, "unit": "%"}, {"measurement": "Activity", "setting": "[24]", "result": 46, "unit": "%"}, {"measurement": "Activity", "setting": "[25]", "result": 72, "unit": "%"}]}]}
